Results from US11806342B2, “Diiodohydroxyquinoline for the treatment of clostridium difficile infection” (Purdue Research Foundation, priority 2019, dated 2023).
Converted amounts (≈) assume the structure as drawn.

Legend:
Bacteroides dorei HM-718 = assay: MIC against normal gut microflora, broth microdilution; type: cell-based; settings: Phocaeicola dorei, HM718
Protocol: (§1) In vitro antimicrobial evaluation of diiodohydroxyquinoline against normal microflora. The broth microdilution assay was utilized to determine the MICs of DIHQ and control antibiotics against commensal organisms that compose he human gut microflora, as described elsewhere. A bacterial solution equivalent to 0.5 McFarland standard was prepared and diluted in BHIS broth (for Bifidobacterium and Bacteroides) or in MRS broth (for Lactobacillus) to achieve a bacterial concentration of about 5×10^5 CFU/mL. Then, drugs were added and serially diluted along the plates.

[1] = system: Bifidobacterium longum HM-847; assay: as above; type: cell-based; settings: Bifidobacterium longum, HM847
Protocol: as §1

[2] = system: Lactobacillus crispatus HM-371; assay: as above; type: cell-based; settings: Lactobacillus crispatus, HM371
Protocol: as §1

[3] = system: Bacteroides fragilis HM-710; assay: as above; type: cell-based; settings: Bacteroides fragilis, HM710
Protocol: as §1

Bacteroides dorei HM-29 = assay: as above; type: cell-based; settings: Phocaeicola dorei, HM29
Protocol: as §1

[4] = system: Lactobacillus casei ATCC 334; assay: as above; type: cell-based; settings: Lacticaseibacillus casei, ATCC334
Protocol: as §1

[5] = system: Lactobacillus reuteri HM-102; assay: as above; type: cell-based; settings: Limosilactobacillus reuteri, HM102
Protocol: as §1

[6] = system: Bifidobacterium breve HM-1120; assay: as above; type: cell-based; settings: Bifidobacterium breve, HM1120
Protocol: as §1

[7] = system: Bifidobacterium angulatum HM-1189; assay: as above; type: cell-based; settings: Bifidobacterium angulatum, HM1189
Protocol: as §1

[8] = system: Bacteroides fragilis HM-714; assay: as above; type: cell-based; settings: Bacteroides fragilis, HM714
Protocol: as §1

[9] = system: Bacteroides fragilis HM-711; assay: as above; type: cell-based; settings: Bacteroides fragilis, HM711
Protocol: as §1

Bacteroides dorei HM-717 = assay: as above; type: cell-based; settings: Phocaeicola dorei, HM717
Protocol: as §1

[10] = system: Bifidobacterium breve HM-411; assay: as above; type: cell-based; settings: Bifidobacterium breve, HM411
Protocol: as §1

Bacteroides dorei HM-719 = assay: as above; type: cell-based; settings: Phocaeicola dorei, HM719
Protocol: as §1

[11] = system: Bacteroides fragilis HM-709; assay: as above; type: cell-based; settings: Bacteroides fragilis, HM709
Protocol: as §1

[12] = system: Bifidobacterium longum HM-845; assay: as above; type: cell-based; settings: Bifidobacterium longum, HM845
Protocol: as §1

[13] = system: Bifidobacterium adolescentis HM-633; assay: as above; type: cell-based; settings: Bifidobacterium adolescentis, HM633
Protocol: as §1

C. difficile ATCC 43255 = assay: Initial screening of antiparasitic drugs, broth microdilution MIC; type: cell-based, Clostridium difficile; settings: Clostridioides difficile, ATCC43255
Protocol: C. difficile strains were grown anaerobically on brain heart infusion supplemented (BHIS) agar plates at 37° C. for 48 hours. Afterwards, a bacterial solution equivalent to 0.5 McFarland standard was prepared and diluted in (BHIS) broth to achieve a bacterial concentration of about 5×10^5 CFU/mL. Drugs were added and serially diluted along the plates. Plates were then, incubated anaerobically at 37° C. for 48 hours. MICs reported in Table (1) are the minimum concentrations of the drugs that could completely suppress the visual growth of bacteria.

[14] = system: 38 tested C. difficile strains; assay: MIC and MBC over the panel of clinical isolates (MIC50, MIC90, range); type: cell-based, Clostridium difficile; settings: Clostridioides difficile
Protocol: (§2) MIC50 and MIC90 are the minimum concentration of each agent that inhibited growth of 50% and 90% of the tested isolates, respectively. The minimum bactericidal concentration (MBC) of these drugs was tested by plating 5 μL from wells with no growth onto BHIS agar plates. The MBC was categorized as the lowest concentration that reduced bacterial growth by 99.9% MIC50 and MIC90 are the minimum concentration of each agent that inhibited the growth of 50% and 90% of the tested isolates, respectively. The minimum bactericidal concentration (MBC) of these drugs was tested by plating 5 μL from wells with no growth onto BHIS agar plates. The MBC was categorized as the lowest concentration that reduced bacterial growth by 99.9% [29-31].

C. difficile HM-89 = assay: MIC and MBC, broth microdilution; type: cell-based, Clostridium difficile; settings: Clostridioides difficile, HM89
Protocol: as §2

C. difficile ATCC 43598 = assay: MIC and MBC, broth microdilution; type: cell-based, Clostridium difficile; settings: Clostridioides difficile, ATCC43598
Protocol: as §2

C. difficile I1 = assay: MIC and MBC, broth microdilution; type: cell-based, Clostridium difficile; settings: Clostridioides difficile, I1
Protocol: as §2

C. difficile I4 = assay: MIC and MBC, broth microdilution; type: cell-based, Clostridium difficile; settings: Clostridioides difficile, I4
Protocol: as §2

C. difficile P8 = assay: MIC and MBC, broth microdilution; type: cell-based, Clostridium difficile; settings: Clostridioides difficile, P8
Protocol: as §2

C. difficile ATCC 9689 = assay: MIC and MBC, broth microdilution; type: cell-based, Clostridium difficile; settings: Clostridioides difficile, ATCC9689
Protocol: as §2

C. difficile NR-49277 = assay: MIC and MBC, broth microdilution; type: cell-based, Clostridium difficile; settings: Clostridioides difficile, NR49277
Protocol: as §2

C. difficile NR-49281 = assay: MIC and MBC, broth microdilution; type: cell-based, Clostridium difficile; settings: Clostridioides difficile, NR49281
Protocol: as §2

C. difficile P24 = assay: MIC and MBC, broth microdilution; type: cell-based, Clostridium difficile; settings: Clostridioides difficile, P24
Protocol: as §2

C. difficile NR-49284 = assay: MIC and MBC, broth microdilution; type: cell-based, Clostridium difficile; settings: Clostridioides difficile, NR49284
Protocol: as §2

CN[C@H](CC(C)C)C(=O)N[C@H]1C(=O)N[C@@H](CC(N)=O)C(=O)N[C@H]2C(=O)N[C@H]3C(=O)N[C@H](C(=O)N[C@H](C(=O)O)c4cc(O)cc(O)c4-c4cc3ccc4O)[C@H](O)c3ccc(c(Cl)c3)Oc3cc2cc(c3O[C@@H]2O[C@H](CO)[C@@H](O)[C@H](O)[C@H]2O[C@H]2C[C@](C)(N)[C@H](O)[C@H](C)O2)Oc2ccc(cc2Cl)[C@H]1O [Vancomycin, vancomycin]
MIC (Bacteroides dorei HM-718): 128 µg/mL (≈ 88.3 µM) | MIC [1]: ≤ 1 µg/mL | MIC [2]: 4 µg/mL (≈ 2.76 µM) | MIC [3]: 64 µg/mL (≈ 44.2 µM) | MIC (Bacteroides dorei HM-29): 64 µg/mL (≈ 44.2 µM) | MIC [4]: > 128 µg/mL | MIC [5]: > 128 µg/mL | MIC [6]: ≤ 1 µg/mL | MIC [7]: ≤ 1 µg/mL | MIC [8]: 128 µg/mL (≈ 88.3 µM) | MIC [9]: 128 µg/mL (≈ 88.3 µM) | MIC (Bacteroides dorei HM-717): 128 µg/mL (≈ 88.3 µM) | MIC [10]: ≤ 1 µg/mL | MIC (Bacteroides dorei HM-719): 64 µg/mL (≈ 44.2 µM) | MIC [11]: 64 µg/mL (≈ 44.2 µM) | MIC [12]: ≤ 1 µg/mL | MIC [13]: ≤ 1 µg/mL | MIC (C. difficile ATCC 43255): 1 µg/mL (≈ 0.69 µM) | MIC50 [14]: 0.5 µg/mL (≈ 0.345 µM) | MIC90 [14]: 1 µg/mL (≈ 0.69 µM) | MBC (C. difficile HM-89): 1 µg/mL (≈ 0.69 µM) | MIC (C. difficile HM-89): 1 µg/mL (≈ 0.69 µM) | MBC (C. difficile ATCC 43598): 1 µg/mL (≈ 0.69 µM) | MIC (C. difficile ATCC 43598): 1 µg/mL (≈ 0.69 µM) | MBC (C. difficile I1): 1 µg/mL (≈ 0.69 µM) | MIC (C. difficile I1): 1 µg/mL (≈ 0.69 µM) | MBC (C. difficile I4): 0.5 µg/mL (≈ 0.345 µM) | MIC (C. difficile I4): 0.5 µg/mL (≈ 0.345 µM) | MBC (C. difficile P8): 1 µg/mL (≈ 0.69 µM) | MIC (C. difficile P8): 1 µg/mL (≈ 0.69 µM) | MBC (C. difficile ATCC 9689): 1 µg/mL (≈ 0.69 µM) | MIC (C. difficile ATCC 9689): 0.5 µg/mL (≈ 0.345 µM) | MBC (C. difficile NR-49277): 1 µg/mL (≈ 0.69 µM) | MIC (C. difficile NR-49277): 1 µg/mL (≈ 0.69 µM) | MBC (C. difficile NR-49281): 0.25 µg/mL (≈ 0.173 µM) | MIC (C. difficile NR-49281): 0.25 µg/mL (≈ 0.173 µM) | MBC (C. difficile P24): 0.5 µg/mL (≈ 0.345 µM) | MIC (C. difficile P24): 0.5 µg/mL (≈ 0.345 µM) | MBC (C. difficile NR-49284): 0.5 µg/mL (≈ 0.345 µM) | MIC (C. difficile NR-49284): 0.25 µg/mL (≈ 0.173 µM)
